The test system of series [1] is primary bovine chondrocytes. As to the kind of experiment: Proteoglycan degradation in primary bovine chondrocyte pellet culture (release into media / retention in cell pellet, DMMB). Format: cell-based. How it is done:
Full-thickness bovine articular cartilage slices were dissected under aseptic conditions, rinsed four times in PBS, and subjected to pronase and collagenase digestion (1 mg/ml pronase (Calbiochem, San Diego, Calif.) for 30 minutes and 1 mg/ml Collagenase P (Roche Diagnostics Corporation, Indianapolis, Ind.) overnight at 37° C. in DME without serum) to isolate chondrocytes embedded in the cartilage extracellular matrix. The digest was filtered through a 70 micron Falcon™ cell strainer (BD Biosciences, San Jose, Calif.) and washed twice in DME containing 10% FBS. Typically 2-4×10^8 cells were obtained from a calf metacarpophalangeal joint surface. Cells were plated in monolayer in six-well plates at density of 2×10^6 cells/well. For pellet culture, cells were resuspended in growth media [HL-1 media (Cambrex Corporation, East Rutherford, N.J.), penicillin+streptomycin, glutamine, 50 μg/ml ascorbate, and 10% FBS] at 1×10^6 cells/ml, and 1 ml aliquots of cells were transferred to 15 ml sterile Falcon centrifuge tubes. The cells were centrifuged at 200×g for 5 min at 4° C. and the resulting cell pellets were cultured as described previously (Xu et al. (1996) Endocrinology 137:3557-65). Cell media were collected and stored for collagen and proteoglycan assays, and cells were refed with fresh media (3 ml/well, 1 ml/tube) every 3-4 days. Pellet cultures were maintained for 3 weeks, at which time the pellets were harvested and either digested with 0.5 ml of 300 μg/ml papain at 65° C. for 3-6 hrs for dimethylmethylene blue (DMMB) dye assays or prepared for histology.
Cells were incubated with the inhibitor for 3 hrs prior to the addition of either TNF or IL-1. […] SN50M, which served as a negative control, is the same peptide with amino acid changes to abolish NF-κB-blocking activity. SN50 and SN50M are available from, e.g., Biomol Research Laboratories, Inc. (Plymouth Meeting, Pa.).
To determine whether ζPKC inhibitors can inhibit TNF-mediated proteoglycan degradation, primary bovine chondrocytes were cultured with various concentrations of TNF for 5 days with or without (1) the myristoylated ζPKC peptide pseudosubstrate [herein termed “2089”; synthesized in-house; equivalent to SEQ ID NO:6; available from, e.g., BioSource International, Inc., USA (Camarillo, Calif.)], or (2) the small molecule inhibitor Ro-31-8220 (Sigma-RBI, Natick, Mass.). The inhibitors were added 3 hrs prior to addition of TNF.
To determine whether myristoylated ζPKC peptide pseudosubstrate 2089 can inhibit cytokine-mediated proteoglycan degradation in a dose-dependent manner, primary bovine chondrocytes were cultured with either 10 ng/ml TNF or 1 ng/ml IL-1 for 4 days after addition of various concentrations of 2089. […]

For series [2], the system named is primary bovine chondrocytes. Kind of series: Trypan blue staining of chondrocytes and lactate assays on culture media (cytotoxicity). Format: cell-based. How it is done: Trypan blue staining of the chondrocytes and lactate assays on the culture media were performed to rule out cytotoxicity as a possible explanation for the results. […] In addition, control peptides were synthesized and tested in the same assay system to address the possibility that nonspecific effects may be causing the observed results.

Another series concerns NF-κB. As to the kind of experiment: NF-κB luciferase reporter assay in immortalized human chondrocyte cell line C28/I2. Format: cell-based. The following applies: BIS 20 μM; TNFα 1 or 10 ng/ml; C28/I2 cells; inhibitor added 2 hrs before TNF; FIG. 8. How it is done:
Activation of NF-κB was measured in an immortalized human chondrocyte cell line (C28/I2; see, e.g., Finger et al. (2003) Arthritis Rheum. 48:3395-403; Goldring (1994) J. Clin. Invest. 94:2307-16) into which a luciferase reporter gene under the control of an NF-κB response element was introduced. The cells were cultured in DMEM/Ham's F12 supplemented with 10% FBS; the cells were split into 96 wells (1×10^5 cells/well) and infected with adenovirus expressing NF-κB luciferase construct (100 MOI) 24 hrs prior to assay. The chondrocytes were incubated with inhibitors in serum-free media 2 hrs prior to the addition of TNF. […] BIS (20 μM), a pan-PKC inhibitor, was added to some cultures, and CC (8 μM), a competitive inhibitor of the phorbol ester binding site in some forms of PKC (but not the a typical PKCs, e.g., ζPKC), was added to other cultures.
On the technique in general: Reporter assays use an easily measured gene product as a stand-in for the process of interest.

Another series addresses T1, ζPKC (Homo sapiens, UniProt Q05513).
T1 sequence (Q05513 1-592): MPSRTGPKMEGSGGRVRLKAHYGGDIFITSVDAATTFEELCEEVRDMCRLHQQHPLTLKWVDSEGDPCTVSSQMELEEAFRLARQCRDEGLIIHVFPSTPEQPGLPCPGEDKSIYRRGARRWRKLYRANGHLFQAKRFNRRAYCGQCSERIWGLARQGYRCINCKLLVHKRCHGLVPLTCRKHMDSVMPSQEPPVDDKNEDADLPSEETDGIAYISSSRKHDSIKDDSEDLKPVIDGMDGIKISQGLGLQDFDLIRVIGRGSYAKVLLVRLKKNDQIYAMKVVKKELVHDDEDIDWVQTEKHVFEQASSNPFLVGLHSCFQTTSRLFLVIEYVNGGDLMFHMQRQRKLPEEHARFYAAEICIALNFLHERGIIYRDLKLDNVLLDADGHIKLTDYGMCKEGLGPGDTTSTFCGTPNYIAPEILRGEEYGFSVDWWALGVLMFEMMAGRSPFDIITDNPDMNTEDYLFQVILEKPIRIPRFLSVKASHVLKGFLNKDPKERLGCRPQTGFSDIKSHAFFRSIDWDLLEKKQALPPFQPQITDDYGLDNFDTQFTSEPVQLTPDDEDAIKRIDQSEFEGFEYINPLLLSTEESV
The following applies: literature (Toullec et al. 1991); cited from earlier work.

Where two headings read alike, the source gives them in different places. Where a SMILES comes first, the peptide text is derived from it. The star is where a group is joined. Myristoyl = CCCCCCCCCCCCCC(=O)*

Consider three compounds from patent US7638482B2, “Protein kinase C zeta as a drug target for arthritis and other inflammatory diseases” (Wyeth, priority 2003, dated 2009).

In the case of `Cn1cc(C2=C(c3cn(CCCSC(=N)N)c4ccccc34)C(=O)NC2=O)c2ccccc21` [Ro-31-8220], the TNF-mediated proteoglycan degradation entry in series [1] (5 μM Ro-31-8220, 5 days, FIG. 3) is reported as “relatively ineffective”; in series [1] (10 μM Ro-31-8220, TNF 10 and 100 ng/ml, 5 days, FIG. 3) it was “significantly inhibited”. Moreover, in series [1] (no TNF, 5 days, FIG. 3), the “proteoglycan degradation in the absence of TNF” value is on record as “inhibited proteoglycan degradation”. In series [2] (at the doses used in the proteoglycan degradation experiments), the “cytotoxicity (trypan blue staining, lactate assays)” value is “do not cause appreciable cytotoxicity”.
As for `CCCCCCCCCCCCCC(=O)N[C@@H](CO)C(=O)N[C@H](C(=O)N[C@@H](Cc1ccc(O)cc1)C(=O)N[C@@H](CCCNC(=N)N)C(=O)N[C@@H](CCCNC(=N)N)C(=O)NCC(=O)N[C@@H](C)C(=O)N[C@@H](CCCNC(=N)N)C(=O)N[C@@H](CCCNC(=N)N)C(=O)N[C@@H](Cc1c[nH]c2ccccc12)C(=O)N[C@@H](CCCNC(=N)N)C(=O)N[C@@H](CCCCN)C(=O)N[C@@H](CC(C)C)C(=O)O)[C@@H](C)CC` [compound 2089] (Myristoyl-SIYRRGARRWRKL-OH), in series [2], the “cytotoxicity (trypan blue staining, lactate assays)” value is “do not cause appreciable cytotoxicity”.
On to bisindolylmaleimide, for which the “TNFα-mediated release of proteoglycan into the media” value in series [1] (BIS at 20-40 μM, TNFα 100 ng/ml, FIG. 7) is “blocked”. The “TNFα-mediated activation of NF-κB (relative luciferase activity)” value with NF-κB was “blocked”. Besides, the “inhibition of PKC isoforms including ζPKC” value at ζPKC was “block the activity of all isoforms of PKC”.
